26 compounds from ChEMBL document CHEMBL1921676, “Pyrazolone-based anaplastic lymphoma kinase (ALK) inhibitors: control of selectivity by a benzyloxy group” (Bioorg Med Chem Lett, 2011) can be followed below.

Data set [1] is described as follows: Half life in dog liver microsomes.
The target in data set [2] is Insulin receptor (Homo sapiens, UniProt P06213). Nature of the data set: Inhibition of GST-tagged intracellular domain of IR by homogeneous time-resolved fluorescence assay. Format: single protein.
Data set [3] in a line: Half life in human liver microsomes.
Data set [4] is described as follows: Half life in mouse liver microsomes.
Data set [5] is described as follows: Half life in rat liver microsomes.
Data set [6] concerns the target ALK tyrosine kinase receptor (Homo sapiens, UniProt Q9UM73). The experiment in a line: Inhibition of ALK.
In data set [7] the target is T1, Vascular endothelial growth factor receptor 2 (Homo sapiens, UniProt P35968). The experiment in a line: Inhibition of human cytoplasmic domain of VEGFR-2 by time-resolved fluorescence assay.
T1 sequence (P35968 whole entry, the tested form may be a part): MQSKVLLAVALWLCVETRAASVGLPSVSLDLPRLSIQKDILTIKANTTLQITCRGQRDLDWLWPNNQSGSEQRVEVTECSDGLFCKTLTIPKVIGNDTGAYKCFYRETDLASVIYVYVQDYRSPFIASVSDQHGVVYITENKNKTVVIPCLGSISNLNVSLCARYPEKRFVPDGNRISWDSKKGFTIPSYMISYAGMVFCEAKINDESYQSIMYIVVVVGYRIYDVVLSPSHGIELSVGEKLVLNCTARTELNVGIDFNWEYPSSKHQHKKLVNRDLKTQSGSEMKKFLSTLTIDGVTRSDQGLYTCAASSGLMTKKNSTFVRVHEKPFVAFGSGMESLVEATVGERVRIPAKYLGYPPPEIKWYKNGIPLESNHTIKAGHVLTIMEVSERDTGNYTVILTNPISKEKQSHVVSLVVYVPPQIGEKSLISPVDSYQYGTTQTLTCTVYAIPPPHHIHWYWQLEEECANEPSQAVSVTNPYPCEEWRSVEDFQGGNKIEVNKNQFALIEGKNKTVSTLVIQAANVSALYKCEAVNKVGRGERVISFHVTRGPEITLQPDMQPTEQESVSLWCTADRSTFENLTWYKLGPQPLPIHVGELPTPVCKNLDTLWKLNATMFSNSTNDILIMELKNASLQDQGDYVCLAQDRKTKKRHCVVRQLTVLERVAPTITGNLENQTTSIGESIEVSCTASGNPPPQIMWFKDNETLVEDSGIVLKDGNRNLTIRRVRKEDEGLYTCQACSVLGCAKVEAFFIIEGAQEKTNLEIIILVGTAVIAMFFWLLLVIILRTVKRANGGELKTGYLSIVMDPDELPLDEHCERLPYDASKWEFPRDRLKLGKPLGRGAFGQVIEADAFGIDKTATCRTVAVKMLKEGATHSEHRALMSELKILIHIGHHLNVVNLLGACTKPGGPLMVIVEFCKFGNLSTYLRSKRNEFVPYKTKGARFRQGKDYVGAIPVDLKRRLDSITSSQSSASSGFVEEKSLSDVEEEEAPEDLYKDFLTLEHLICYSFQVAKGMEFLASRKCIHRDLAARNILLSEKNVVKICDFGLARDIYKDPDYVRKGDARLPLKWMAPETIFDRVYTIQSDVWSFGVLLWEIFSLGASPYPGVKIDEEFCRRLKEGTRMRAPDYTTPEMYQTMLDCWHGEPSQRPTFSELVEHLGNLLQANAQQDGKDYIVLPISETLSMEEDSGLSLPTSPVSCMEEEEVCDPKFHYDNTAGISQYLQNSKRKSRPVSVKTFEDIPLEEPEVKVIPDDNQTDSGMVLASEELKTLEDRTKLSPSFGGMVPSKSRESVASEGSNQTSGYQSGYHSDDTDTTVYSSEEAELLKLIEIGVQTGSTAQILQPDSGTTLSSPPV
Data set [8] is described as follows: Clearance in rat at 1 mg/kg, iv. Type of data set: ADME, organism-based. Also on record: dose 1 mg/kg, route intravenous. Particulars: in vivo.
Data set [9] has as its target T1, Vascular endothelial growth factor receptor 2. The experiment in a line: Inhibition of human cytoplasmic domain of VEGFR-2 at 1 uM by time-resolved fluorescence assay.
Data set [10] can be described thus: Volume of distribution in rat at 1 mg/kg, iv. Type of data set: ADME, organism-based. Also on record: dose 1 mg/kg, route intravenous. Particulars: in vivo.
The nature of data set [11]: Half life in rat at 1 mg/kg, iv. Also on record: dose 1 mg/kg, route intravenous. Conditions: in vivo. Type of data set: ADME, organism-based.
A short description of data set [12]: AUC in rat at 1 mg/kg, iv. Format: ADME, organism-based. Particulars: plasma. Also noted: dose 1 mg/kg, route intravenous.
Data set [13] is described as follows: AUC in rat at 5 mg/kg, po. Format: ADME, organism-based. Also on record: dose 5 mg/kg, route oral. Particulars: plasma.

Chain of ALK tyrosine kinase receptor (Q9UM73 whole entry, the tested form may be a part): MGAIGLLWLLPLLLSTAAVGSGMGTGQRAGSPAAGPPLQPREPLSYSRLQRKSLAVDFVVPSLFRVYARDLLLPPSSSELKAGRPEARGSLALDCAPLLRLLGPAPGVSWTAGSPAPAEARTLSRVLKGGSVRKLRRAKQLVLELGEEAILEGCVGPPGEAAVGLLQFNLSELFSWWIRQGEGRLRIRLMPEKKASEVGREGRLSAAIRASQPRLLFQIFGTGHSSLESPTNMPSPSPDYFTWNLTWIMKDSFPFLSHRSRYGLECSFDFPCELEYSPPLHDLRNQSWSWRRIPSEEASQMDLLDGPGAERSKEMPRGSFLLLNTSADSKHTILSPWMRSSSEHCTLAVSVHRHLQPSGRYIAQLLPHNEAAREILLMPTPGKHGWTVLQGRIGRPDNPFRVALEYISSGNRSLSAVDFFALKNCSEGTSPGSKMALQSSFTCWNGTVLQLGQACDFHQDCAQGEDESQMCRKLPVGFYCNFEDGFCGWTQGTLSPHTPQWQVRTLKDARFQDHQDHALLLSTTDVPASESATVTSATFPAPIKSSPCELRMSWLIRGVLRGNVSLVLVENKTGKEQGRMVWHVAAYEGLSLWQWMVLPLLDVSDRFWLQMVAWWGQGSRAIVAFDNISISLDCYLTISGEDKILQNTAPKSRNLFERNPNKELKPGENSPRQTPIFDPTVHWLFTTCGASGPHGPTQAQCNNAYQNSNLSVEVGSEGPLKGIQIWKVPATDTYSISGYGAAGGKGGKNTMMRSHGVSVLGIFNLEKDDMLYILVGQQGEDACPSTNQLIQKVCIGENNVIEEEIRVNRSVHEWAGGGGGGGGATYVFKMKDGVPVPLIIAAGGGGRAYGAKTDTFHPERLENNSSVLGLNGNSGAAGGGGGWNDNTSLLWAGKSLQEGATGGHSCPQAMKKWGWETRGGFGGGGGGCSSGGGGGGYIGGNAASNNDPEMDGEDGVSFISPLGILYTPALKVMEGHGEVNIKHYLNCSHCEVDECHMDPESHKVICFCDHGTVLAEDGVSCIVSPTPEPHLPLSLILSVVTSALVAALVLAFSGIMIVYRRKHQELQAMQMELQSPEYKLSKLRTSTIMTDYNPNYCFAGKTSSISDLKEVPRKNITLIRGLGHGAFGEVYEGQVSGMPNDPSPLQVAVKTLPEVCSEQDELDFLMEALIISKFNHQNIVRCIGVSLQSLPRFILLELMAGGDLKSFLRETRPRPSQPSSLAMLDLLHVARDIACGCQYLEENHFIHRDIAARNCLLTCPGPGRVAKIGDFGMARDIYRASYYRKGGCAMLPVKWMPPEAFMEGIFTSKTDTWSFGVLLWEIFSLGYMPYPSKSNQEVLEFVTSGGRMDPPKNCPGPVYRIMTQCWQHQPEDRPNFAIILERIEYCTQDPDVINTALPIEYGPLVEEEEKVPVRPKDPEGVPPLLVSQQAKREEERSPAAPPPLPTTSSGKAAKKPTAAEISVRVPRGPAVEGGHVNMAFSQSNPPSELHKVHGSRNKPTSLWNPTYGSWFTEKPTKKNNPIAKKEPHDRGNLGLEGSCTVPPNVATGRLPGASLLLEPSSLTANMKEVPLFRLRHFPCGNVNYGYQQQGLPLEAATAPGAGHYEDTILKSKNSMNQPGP

For the compound `CCOc1cccc2c1c(/C=C1\C(=O)NN=C1c1snnc1C)cn2C`, the half-life in [1] (microsomes) came to 5 min; in data set [3] (microsomes), 6 min; in data set [4] (microsomes), 5 min; in [5] (microsomes), 5 min. The compound further yielded a 50% inhibitory concentration (IC50) in data set [2] of 998 nM.
For `Cc1nc(COc2cccc3c2c(/C=C2\C(=O)NN=C2c2snnc2C)cn3C)cs1`, the IC50 in [6] stood at 3000 nM. This lies in the single-digit micromolar range.
In data set [6], `Cc1nnsc1C1=NNC(=O)/C1=C\c1cn(C)c2cccc(OCCN(C)C)c12` gave a 50% inhibitory concentration (IC50) of 291 nM.
In data set [6], `Cn1cc(/C=C2\C(=O)NN=C2c2nccs2)c2c(OCc3ccc(F)cc3)cccc21` yielded a concentration for half-maximal inhibition (IC50) of 63 nM.
Take `Cc1nnsc1C1=NNC(=O)/C1=C\c1cn(C)c2cccc(OCc3ccc(F)cc3)c12`: in data set [2], the IC50 is above 10000 nM.
Consider `Cc1nnsc1C1=NNC(=O)/C1=C\c1cn(C)c2cccc(OCc3ccccc3)c12`, for which the half-life in data set [1] (liver microsomes) was 29 min; in data set [3] (liver microsomes) it was 32 min; in data set [4] (liver microsomes), above 40 min; in [5] (liver microsomes), above 40 min. The figures for the half-inhibitory concentration (IC50) in data set [7] and in data set [2] were above 300 nM and above 10000 nM, respectively.
`Cn1cc(/C=C2\C(=O)NN=C2c2nc(C(F)(F)F)cs2)c2c(OCc3ccccc3)cccc21` yielded a concentration for half-maximal inhibition (IC50) in data set [6] of 10000 nM.
The compound `CN(C)c1nnc(C2=NNC(=O)/C2=C\c2cn(C)c3cccc(OCc4ccccc4)c23)s1` displayed an IC50 in [6] of 4600 nM.
As for `Cn1cc(/C=C2\C(=O)NN=C2c2nccs2)c2c(OCc3c(F)cccc3F)cccc21`, the half-life in [1] (microsomes) was found to be 10 min; in [3] (microsomes), 7 min; in data set [4] (microsomes), 6 min; in data set [5] (microsomes), 6 min. Also, in data set [2], the half-maximal inhibitory concentration (IC50) turned out to be 428 nM.
In [2], `CC(Oc1cccc2c1c(/C=C1\C(=O)NN=C1c1nccs1)cn2C)c1ccccc1` (stereo not drawn) returned a concentration for half-maximal inhibition (IC50) above 10000 nM.
In data set [6], `Cc1nnsc1C1=NNC(=O)/C1=C\c1cn(C)c2cccc(OCc3ccccn3)c12` registered an IC50 of 158 nM.
In data set [2], `Cc1nnsc1C1=NNC(=O)/C1=C\c1cn(C)c2cccc(OCc3c(F)cccc3Cl)c12` gave an IC50 of 720 nM. That is a sub-micromolar value.
Regarding `Cn1cc(/C=C2\C(=O)NN=C2c2nccs2)c2c(OCc3ccccc3)cccc21`, the half-life in [1] (microsomes) is 22 min; in [3] (microsomes), 30 min; in [11] it was 41.4 min; in [4] (microsomes) it was 25 min; in [5] (microsomes), 30 min. Further, in [8], the clearance is 19.6 mL/min. The compound further showed a half-inhibitory concentration (IC50) in data set [2] of 9120 nM. In addition, the inhibition in data set [9] amounted to 50%. This compound also showed a Vd in data set [10] of 1.2 L/kg. Further, the area under the curve (AUC) in [12] came to 972 ng·h/mL; in data set [13] it was 13 ng·h/mL.
In data set [2], `Cc1nnsc1C1=NNC(=O)/C1=C\c1cn(C)c2cccc(OCc3ccccc3F)c12` returned an IC50 above 10000 nM.
Compound `Cn1cc(/C=C2\C(=O)NN=C2c2cccs2)c2c(OCc3ccccc3)cccc21` yielded an IC50 in data set [6] of 104 nM.
The same measure, in the same setting: as for `Cn1cc(/C=C2\C(=O)NN=C2c2cccnc2)c2c(OCc3ccccc3)cccc21`, the figure is 54 nM.
In the case of `Cn1cc(/C=C2\C(=O)NN=C2c2nccs2)c2c(OCc3cccc(F)c3F)cccc21`, the half-life was 12 min in data set [1] (liver microsomes), 14 min in data set [3] (liver microsomes), 8 min in data set [4] (liver microsomes) and 10 min in data set [5] (liver microsomes). This compound yielded an IC50 in [2] of 6500 nM.
With `Cn1cc(/C=C2\C(=O)NN=C2c2nccs2)c2c(OCc3cccc(F)c3)cccc21`, the half-life in data set [1] (liver microsomes) worked out at 8 min; in data set [3] (liver microsomes), 10 min; in [4] (liver microsomes), 6 min; in [5] (liver microsomes) it was 8 min. The half-inhibitory concentration (IC50) in data set [2] is above 1000 nM. The same compound registered an inhibition in data set [9] of 50%.
In data set [2], `Cc1nnsc1C1=NNC(=O)/C1=C\c1cn(C)c2cccc(OCc3c(F)cccc3F)c12` displayed a concentration for half-maximal inhibition (IC50) above 1000 nM.
In [2], `Cc1nnsc1C1=NNC(=O)/C1=C\c1cn(C)c2cccc(OCc3c(F)ccc(F)c3Cl)c12` came in with a concentration for half-maximal inhibition (IC50) of 661 nM. This counts as sub-micromolar.
Compound `Cc1nnsc1C1=NNC(=O)/C1=C\c1cn(C)c2cccc(OCc3cccc(F)c3)c12` showed an IC50 in [2] above 10000 nM.
As for `Cn1cc(/C=C2\C(=O)NN=C2c2nccs2)c2c(OCc3ccccc3F)cccc21`, the IC50 in [2] is above 10000 nM.
In data set [2], `Cc1nnsc1C1=NNC(=O)/C1=C\c1cn(C)c2cccc(OCc3c(F)ccc(Cl)c3F)c12` registered a 50% inhibitory concentration (IC50) of 861 nM.
In turn, `Cn1cc(/C=C2\C(=O)NN=C2c2nccs2)c2c(OCc3c(F)cccc3Cl)cccc21` displayed a 50% inhibitory concentration (IC50) in data set [2] of 1410 nM.
`Cn1cc(/C=C2\C(=O)NN=C2c2nccs2)c2c(OCc3ccc(F)cc3F)cccc21`: in [6], the half-maximal inhibitory concentration (IC50) was found to be 229 nM.
As for `Cc1nnsc1C1=NNC(=O)/C1=C\c1cn(C)c2cccc(OCc3ccc(F)cc3F)c12`, the half-inhibitory concentration (IC50) in data set [2] was above 10000 nM.
